Where two headings read alike, the source gives them in different places.
How the values were obtained:
[1] = test system: human iPSc derived into cardiomyocyte; assay: Toxicity - ATP content (CellTiter-Glo); assay type: cell-based; conditions: ATP content after 24 hours
Method: iCell Cardiomyocytes were seeded in 384-well plates. Eight days later cells were treated for 24 hours with compounds. Cell viability was determined by the quantification of intracellular ATP after cell lysis. ATP was used as an indicator of metabolically active cells. ATP was measured using a luminescent cell viability assay (CellTiter-Glo®; […]). Luminescence was measured after 20 min in a Bioteck Synergie Neo multimode reader.
Toxicity of the unsaturated polyketide/macrocyclic lactone compounds were evaluated in human IPS cell derived cardiomyocytes by measuring total ATP in cell lysates.
Dose response of compounds on human iPSc derived into cardiomyocyte with evaluation of the ATP level using cell titer glow. Results were normalized between untreated cells (100%) and positive control (0%).
The unsaturated polyketide/macrocyclic lactone compound mentioned throughout the Examples section is proposed to have the structure corresponding to Compound A as described herein. […]
Y-axis: relative fluorescence unit in percentage, X-axis: logarithm concentration of the compound in mg/ml for fraction and molar for pure compound. […]

[2] = test system: human iPSc derived into astrocytes; assay: Lactate release dose response in human iPSc derived astrocytes; assay type: cell-based; conditions: 2 hours treatment
Method: Dose response curves were established for compounds identified in the screen to stimulate lactate secretion. The EC50 values for the stimulation of lactate secretion were determined using primary human IPS cell derived astrocytes.
Differentiated human iPSCs (iCell astrocytes, and iCell cardiomyocytes) were obtained from Cellular Dynamics International (CDI, Madison, Wis., USA). iCell astrocytes were cultured in DMEM supplemented with 10% fetal calf serum and N2 complement. iCell cardiomyocytes were maintained in a medium supplied by CDI. Cell cultures were kept in a humidified atmosphere (5% CO2) at 37° C.
Dose response of compounds on lactate release from human iPSc derived into astrocyte fitted with a log (agonist) vs response variable slope to extract efficacy (EC50). Mean±SEM in duplicate.
The unsaturated polyketide/macrocyclic lactone compound mentioned throughout the Examples section is proposed to have the structure corresponding to Compound A as described herein. The toxicity expressed in log IC50 (ATP content after 24 hours compound treatment on human iPSc derived into cardiomyocyte) was compared against the lactate release in log EC50 (lactate secretion after 2 hours compound treatment in human iPSc derived into astrocytes).
Y-axis: relative fluorescence unit, X-axis: logarithm concentration of the compound in mg/ml for fraction and molar for pure compound. […]

EC50 ([2]; pure compound (head: mg/ml or M; molar for pure compound), read-out: Astrocytes Lactate release EC50): 1600 nM
EC50 ([2]; pure compound, log of molar concentration, read-out: Astrocytes Lactate release logEC50 (converted)): 2000 nM
Compound: C/C1=C\C(C)C(=O)CC(O)/C(C)=C/C(C)CC(C)CCC(C(C)C(=O)O)OC(=O)C(C)C1 (stereo not shown)
IC50 ([1]; pure compound (molar), read-out: Cardiomyocytes Toxicity IC50): > 100000 nM
IC50 ([1]; pure compound, log of molar concentration, read-out: Cardiomyocytes Toxicity log IC50 (converted)): > 100000 nM
